# Measurements as given in patent US8088925B2, “Heteroaryl-carboxylic acid (sulfamoyl alkyl) amide-derivatives as factor Xa inhibitors” (priority 2005, dated 2012).
# Target: T1, human factor Xa (Homo sapiens, UniProt P00742)
# T1 construct: human factor Xa; purchased Enzyme Research Laboratories, Inc; South Bend, Ind
# Assay: Factor Xa assay (chromogenic, purified enzyme)
# Type: biochemical
# Conditions: inhibition constant for factor Xa; chromogenic substrate S-2765 140 μM, enzyme 0.5 nM, 25° C.; Ki=IC50/{1+(substrate concentration/Km)}; read-out: Ki (FXa)
# Experimental: Purified enzymes were used in chromogenic assays.
# The assay was performed by pre-incubating the compound of formula I or Ia plus enzyme for 10 min. Then the assay was initiated by adding substrate to obtain a final volume of 100 μl. The initial velocity of chromogenic substrate hydrolysis was measured by the change in absorbance at 405 nm using a Bio-tek Instruments kinetic plate reader (Ceres UV900HDi) at 25° C. during the linear portion of the time course (usually 1.5 min after addition of substrate).
# T1 sequence (P00742 235-488 limits assumed): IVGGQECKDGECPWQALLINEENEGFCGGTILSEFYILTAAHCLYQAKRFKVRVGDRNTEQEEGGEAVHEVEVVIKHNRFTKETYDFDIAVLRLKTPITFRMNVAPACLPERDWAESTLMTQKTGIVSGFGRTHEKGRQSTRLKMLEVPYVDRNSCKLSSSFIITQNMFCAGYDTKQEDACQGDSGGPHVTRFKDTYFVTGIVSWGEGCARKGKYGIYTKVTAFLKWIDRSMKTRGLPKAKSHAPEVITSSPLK
# T1 sequence (P00742 41-179 partner limits assumed): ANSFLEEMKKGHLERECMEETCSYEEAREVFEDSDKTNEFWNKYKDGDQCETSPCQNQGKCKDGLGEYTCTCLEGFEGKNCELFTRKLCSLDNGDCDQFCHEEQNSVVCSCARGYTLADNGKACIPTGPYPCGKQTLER
row,Structure (SMILES),Ki
1,"CC(C)N1CCC(NS(=O)(=O)C(C)CNC(=O)c2ccc(Cl)s2)CC1 (racemic) [Example 26, 5-Chloro-thiophene-2-carboxylic acid [2-(1-isopropyl-piperidin-4-ylsulfamoyl)-propyl]-amide]",13 nM
2,"CC(C)N1CCC(N2C(=O)CC(CNC(=O)c3ccc(Cl)s3)S2(=O)=O)CC1 (racemic) [Example 31, 5-Chloro-thiophene-2-carboxylic acid [2-(1-isopropyl-piperidin-4-yl)-1,1,3-trioxo-1λ^6-isothiazolidin-5-ylmethyl]-amide]",32 nM
3,"CC(C)N1CCC(NS(=O)(=O)CCNC(=O)c2ccc(Cl)s2)CC1 [Example 1, 5-Chloro-thiophene-2-carboxylic acid [2-(1-isopropyl-piperidin-4-ylsulfamoyl)-ethyl]-amide]",10 nM
4,"O=C(NCCS(=O)(=O)NC1CCN(C2CC2)CC1)c1ccc(Cl)s1 [Example 2, 5-Chloro-thiophene-2-carboxylic acid [2-(1-cyclopropyl-piperidin-4-ylsulfamoyl)-ethyl]-amide]",167 nM
5,"CC(C)N1CCC(N(C)S(=O)(=O)CCNC(=O)c2ccc(Cl)s2)CC1 [Example 3, 5-Chloro-thiophene-2-carboxylic acid {2-[(1-isopropyl-piperidin-4-yl)-methyl-sulfamoyl]-ethyl}-amide]",7 nM
6,"CC(C)N1CCC(N(CC(F)(F)F)S(=O)(=O)CCNC(=O)c2ccc(Cl)s2)CC1 [Example 4, 5-Chloro-thiophene-2-carboxylic acid {2-[(1-isopropyl-piperidin-4-yl)-(2,2,2-trifluoro-ethyl)-sulfamoyl]-ethyl}-amide]",15 nM
7,"O=C(NCCS(=O)(=O)NC1CCN(c2ccncc2)CC1)c1ccc(Cl)s1 [Example 5, 5-Chloro-thiophene-2-carboxylic acid [2-(3,4,5,6-tetrahydro-2H-[1,4′]bipyridinyl-4-ylsulfamoyl)-ethyl]-amide]",66 nM
8,"O=C(NCCS(=O)(=O)NC1CNC1)c1ccc(Cl)s1 [Example 6, 5-Chloro-thiophene-2-carboxylic acid[2-(azetidin-3-ylsulfamoyl)-ethyl]-amide]",20500 nM
9,"CC(C)N1CC(NS(=O)(=O)CCNC(=O)c2ccc(Cl)s2)C1 [Example 7, 5-Chloro-thiophene-2-carboxylic acid [2-(1-isopropyl-azetidin-3-ylsulfamoyl)-ethyl]-amide]",7250 nM
10,"O=C(NCCS(=O)(=O)NN1CCN(Cc2ccccc2)CC1)c1ccc(Cl)s1 [Example 8, 5-Chloro-thiophene-2-carboxylic acid [2-(4-benzyl-piperazin-1-ylsulfamoyl)-ethyl]-amide]",1100 nM
11,"CC(C)N1CCC(NS(=O)(=O)CCNC(=O)c2ccc(Br)s2)CC1 [Example 9, 5-Bromo-thiophene-2-carboxylic acid[2-(1-isopropyl-piperidin-4-ylsulfamoyl)-ethyl]-amide]",6 nM
12,"Cc1ccc(C(=O)NCCS(=O)(=O)NC2CCN(C(C)C)CC2)s1 [Example 10, 5-Methyl-thiophene-2-carboxylic acid [2-(1-isopropyl-piperidin-4-ylsulfamoyl)-ethyl]-amide]",259 nM
13,"CC(C)N1CCC(NS(=O)(=O)CCNC(=O)c2ccc(Br)o2)CC1 [Example 11, 5-Bromo-furan-2-carboxylic acid [2-(1-isopropyl-piperidin-4-ylsulfamoyl)-ethyl]-amide]",3150 nM
14,"CC(C)N1CCC(NS(=O)(=O)CCNC(=O)c2ccc(Cl)cc2)CC1 [Example 12, 4-Chloro-N-[2-(1-isopropyl-piperidin-4-ylsulfamoyl)-ethyl]-benzamide]",572 nM
15,"CC(C)N1CCC(NS(=O)(=O)CCNC(=O)c2ccc(Cl)cn2)CC1 [Example 13, 5-Chloro-pyridine-2-carboxylic acid [2-(1-isopropyl-piperidin-4-ylsulfamoyl)-ethyl]-amide]",4470 nM
16,"CC(C)N1CCC(NS(=O)(=O)CCNC(=O)c2cccc(Cl)c2)CC1 [Example 14, 3-Chloro-N-[2-(1-isopropyl-piperidin-4-ylsulfamoyl)-ethyl]-benzamide]",19600 nM

row,Structure (SMILES),Ki
1,"COCCN(C1CCN(C(C)C)CC1)S(=O)(=O)CCNC(=O)c1ccc(Cl)s1 [Example 15, 5-Chloro-thiophene-2-carboxylic acid {2-[(1-isopropyl-piperidin-4-yl)-(2-methoxy-ethyl)-sulfamoyl]-ethyl}-amide]",5 nM
2,"CC(C)N1CCC(N(CCO)S(=O)(=O)CCNC(=O)c2ccc(Cl)s2)CC1 [Example 16, 5-Chloro-thiophene-2-carboxylic acid {2-[(2-hydroxy-ethyl)-(1-isopropyl-piperidin-4-yl)-sulfamoyl]-ethyl}-amide]",4 nM
3,"CC(C)N1CCC(N(CCCO)S(=O)(=O)CCNC(=O)c2ccc(Cl)s2)CC1 [Example 17, 5-Chloro-thiophene-2-carboxylic acid {2-[(3-hydroxy-propyl)-(1-isopropyl-piperidin-4-yl)-sulfamoyl]-ethyl}-amide]",4 nM
4,"CC(C)N1CCC(N(CC(=O)N(C)C)S(=O)(=O)CCNC(=O)c2ccc(Cl)s2)CC1 [Example 18, 5-Chloro-thiophene-2-carboxylic acid {2-[dimethylcarbamoylmethyl-(1-isopropyl-piperidin-4-yl)-sulfamoyl]-ethyl}-amide]",5 nM
5,"CC(C)N1CCC(N(CC(=O)N2CCOCC2)S(=O)(=O)CCNC(=O)c2ccc(Cl)s2)CC1 [Example 19, 5-Chloro-thiophene-2-carboxylic acid {2-[(1-isopropyl-piperidin-4-yl)-(2-morpholin-4-yl-2-oxo-ethyl)-sulfamoyl]-ethyl}-amide]",5 nM
6,"CC(C)N1CCC(N(CC(N)=O)S(=O)(=O)CCNC(=O)c2ccc(Cl)s2)CC1 [Example 20, 5-Chloro-thiophene-2-carboxylic acid {2-[carbamoylmethyl-(1-isopropyl-piperidin-4-yl)-sulfamoyl]-ethyl}-amide]",3 nM
7,"Cc1cc(CN(C2CCN(C(C)C)CC2)S(=O)(=O)CCNC(=O)c2ccc(Cl)s2)no1 [Example 21, 5-Chloro-thiophene-2-carboxylic acid {2-[(1-isopropyl-piperidin-4-yl)-(5-methyl-isoxazol-3-ylmethyl)-sulfamoyl]-ethyl}-amide]",4 nM
8,"CC(C)N1CCC(N(Cc2cccnc2)S(=O)(=O)CCNC(=O)c2ccc(Cl)s2)CC1 [Example 22, 5-Chloro-thiophene-2-carboxylic acid {2-[(1-isopropyl-piperidin-4-yl)-pyridin-3-ylmethyl-sulfamoyl]-ethyl}-amide]",8 nM
9,"CC(C)N1CCC(N(Cc2nccs2)S(=O)(=O)CCNC(=O)c2ccc(Cl)s2)CC1 [Example 23, 5-Chloro-thiophene-2-carboxylic acid {2-[(1-isopropyl-piperidin-4-yl)-thiazol-2-ylmethyl-sulfamoyl]-ethyl}-amide]",6 nM
10,"CCCNC(=O)N(C1CCN(C(C)C)CC1)S(=O)(=O)CCNC(=O)c1ccc(Cl)s1 [Example 24, 5-Chloro-thiophene-2-carboxylic acid {2-[(1-isopropyl-piperidin-4-yl)-propylaminocarbonyl-sulfamoyl]-ethyl}-amide]",4 nM
11,"CC(=O)N(C1CCN(C(C)C)CC1)S(=O)(=O)CCNC(=O)c1ccc(Cl)s1 [Example 25, 5-Chloro-thiophene-2-carboxylic acid {2-[acetyl-(1-isopropyl-piperidin-4-yl)-sulfamoyl]-ethyl}-amide]",3 nM
12,"CC(C)N1CCC(NS(=O)(=O)C[C@H](CO)NC(=O)c2ccc(Cl)s2)CC1 [Example 27, 5-Chloro-thiophene-2-carboxylic acid [(S)-1-hydroxymethyl-2-(1-isopropyl-piperidin-4-ylsulfamoyl)-ethyl]-amide]",1250 nM
13,"CC(C)N1CCC(NS(=O)(=O)CC(C)(C)NC(=O)c2ccc(Cl)s2)CC1 [Example 28, 5-Chloro-thiophene-2-carboxylic acid [2-(1-isopropyl-piperidin-4-ylsulfamoyl)-1,1-dimethyl-ethyl]-amide]",3390 nM
14,"CC(C)N1CCC(NS(=O)(=O)CCCNC(=O)c2ccc(Cl)s2)CC1 [Example 29, 5-Chloro-thiophene-2-carboxylic acid [3-(1-isopropyl-piperidin-4-ylsulfamoyl)-propyl]-amide]",399 nM
15,"CC(C)N1CCC(N(Cc2cc(-c3ccc(Cl)s3)on2)S(=O)(=O)CCNC(=O)c2ccc(Cl)s2)CC1 [Example 32, 5-Chloro-thiophene-2-carboxylic acid {2-[[5-(5-chloro-thiophen-2-yl)-isoxazol-3-ylmethyl]-(1-isopropyl-piperidin-4-yl)-sulfamoyl]-ethyl}-amide]",6 nM
16,"CC(C)N1CCC(N(Cc2nnc(C3CC3)s2)S(=O)(=O)CCNC(=O)c2ccc(Cl)s2)CC1 [Example 33, 5-Chloro-thiophene-2-carboxylic acid {2-[(5-cyclopropyl-[1,3,4]thiadiazol-2-ylmethyl)-(1-isopropyl-piperidin-4-yl)-sulfamoyl]-ethyl}-amide]",6 nM
